# Laboratory results taken from a melting point compilation (Tetko et al.).
row,SMILES,melting point
1,NCCN1C(=O)C2C3C=CC(C3)C2C1=O (stereo not given),69 to 71 °C
2,Cn1c(=O)n(CCC(=O)O)c2ccccc21,226 to 228 °C
3,O=C(O)Cc1cn2ccsc2n1,180 to 184 °C
4,CC(=O)c1cnc2ccsc2c1,132 to 134 °C
5,Nc1cc2c(cc1C(=O)O)OCCCO2,160 to 162 °C
6,CCN(CC)S(=O)(=O)c1cc(C(=O)O)ccc1Cl,118 to 120 °C
7,CCOc1cc(Cl)ccc1C#N,81 to 83 °C
8,CC1CC(C(=O)O)CCC1=O (stereo not given),69 to 71 °C
9,CCc1nn(C)c(Cl)c1C(=O)O,139 to 141 °C
10,CCCNC(=S)NN,61 to 63 °C
11,NC(=O)CNCc1ccccc1,90 to 92 °C
12,O=C(O)CC1NC(=O)N(c2ccc(F)cc2)C1=O (stereo not given),224 to 226 °C
13,N#Cc1ccnc(Cl)c1[N+](=O)[O-],74 to 76 °C
14,ClCc1nnc(-c2ccccc2)o1,90 to 100 °C
15,c1cnc(N2CCNCC2)cn1,48 to 50 °C
16,CC(C)(C)c1ccccc1OCC(=O)O,144 to 148 °C
17,Cn1ccnc1SCC(=O)Nc1ccc(C(=O)O)cc1,171 to 173 °C
18,CC(C)(C)OC(=O)N1CC2NCCOC2C1 (stereo not given),54 to 56 °C
19,CC(C)c1n[nH]c(-c2ccccc2N)n1,125 to 127 °C
20,c1ccc(COc2cccc3[nH]ncc23)cc1,125 to 127 °C
21,OCc1cc(C23CC4CC(CC(C4)C2)C3)n[nH]1,159 to 161 °C
22,COc1ccc(NC(=O)Cn2cc(N)cn2)cc1,151 to 153 °C

row,SMILES,melting point
1,O=C(O)c1cccc(=O)n1CCOc1ccccc1Cl,118 to 120 °C
2,Cc1nc(-c2ccccc2)sc1N,117 to 119 °C
3,c1ccc(Nc2ncccn2)cc1,107 to 109 °C
4,CS(=O)(=O)Cc1ccc(Cl)c(N)c1,137 to 139 °C
5,CCc1cccc2c(C3CCNCC3)c[nH]c12,183 to 185 °C
6,CCCC(NC(C)=O)C(=O)O (stereo not given),114 to 116 °C
7,O=C(O)c1nnn(-c2ccccc2)c1C(F)(F)F,132 to 134 °C
8,COc1ccc2c(c1)-c1sc(N)nc1CC2,179 to 181 °C
9,Cc1nn(C)c2c1NCCS2(=O)=O,110 to 112 °C
10,O=[N+]([O-])c1ccc2nc(Cl)ccc2c1,224 to 226 °C
11,CCC(C)n1ncc(C(=O)O)c1C1CC1 (stereo not given),116 to 118 °C
12,O=Cc1cccc2cn[nH]c12,121 to 123 °C
13,CC(C)C(Br)C(=O)N1CCc2ccccc21 (stereo not given),111 to 113 °C
14,CC(C)c1nonc1N,43 to 45 °C
15,NC(=O)c1cn[nH]c1N,184 to 186 °C
16,Nc1nc(-c2ccccc2Cl)cs1,142 to 144 °C
17,Nc1ccnc(Oc2ccccc2)c1,52 to 54 °C
18,COc1ccc(SC)c(OC)c1C(=O)O,117 to 119 °C
19,O=C(O)c1cnn(-c2ccccn2)c1,186 to 188 °C
20,Cc1nc(C(=O)O)ccc1C#N,150 to 152 °C
21,Cc1ccc(SC2=C(C(=O)O)CCCC2)cc1,199 to 201 °C
22,COc1ccc(N2CCC(=O)CC2)cc1,66 to 68 °C

row,SMILES,melting point
1,O=C(O)c1ccc(S(=O)(=O)N2CCCCCC2)cc1,235 to 237 °C
2,CCN(CC)C(=O)Cc1ccc(N)cc1,87 to 89 °C
3,O=C(O)c1cccc2cccc(-c3cccc4cccc(C(=O)O)c34)c12,284 to 286 °C
4,O=C(O)c1ccc(C=C2NC(=S)N(c3ccc(F)cc3)C2=O)cc1,349 to 351 °C
5,O=C(O)CCc1ccccc1OC(F)(F)F,49 to 51 °C
6,NCc1nnc2n1CCCC2C(F)(F)F (stereo not given),81 to 83 °C
7,O=C(CCSc1ccccn1)c1ccc(F)cc1,60 to 62 °C
8,CC(C)(C)c1nc(C(=O)O)cs1,126 to 128 °C
9,Cc1c(C(=O)O)cnn1-c1ccccc1Cl,149 to 151 °C
10,CC1CCN(C(=O)c2ccc(N)cc2)CC1,118 to 120 °C
11,Nc1c(I)cc(I)cc1I,187 to 189 °C
12,CC(C)(C)OC(=O)N1CCCNC(=O)C1,112 to 114 °C
13,O=Cc1cnc2ccccn12,118 to 120 °C
14,CNS(=O)(=O)c1ccc(Cl)s1,45 to 47 °C
15,O=C(O)Cc1ccc(NC(=O)C2CC2)cc1,189 to 191 °C
16,CC1C=CC2C(=O)N(Cc3ccccc3)C(=O)C2C1C(=O)O (stereo not given),204 to 206 °C
17,Clc1cc(N2CCCC2)ncn1,93 to 95 °C
18,O=C1CCOc2cc(Br)ccc21,89 to 91 °C
19,CCC1Oc2c(Cl)cccc2NC1=O (stereo not given),139 to 141 °C
20,Nc1nnc(-c2cccc(Br)c2)o1,209 to 211 °C
21,O=C(O)C1CC12CCCc1ccccc12 (stereo not given),161 to 163 °C
22,O=C(O)Cc1csc(-c2ccoc2)n1,128 to 130 °C

row,SMILES,melting point
1,O=C(O)c1occc1-c1ccccc1,142 to 144 °C
2,COc1ccc(C)cc1Nc1nnc(S)s1,210 to 212 °C
3,CCN(CC)S(=O)(=O)c1cc(C(=O)O)ccc1C,142 to 144 °C
4,CCOCCCNC(N)=S,84 to 86 °C
5,Fc1ccccc1Nc1nnc(S)s1,170 to 172 °C
6,Nc1ccc(Oc2ccccn2)cc1,62 to 64 °C
7,CCOC(=O)c1c(N)c(C#N)cn1C,159 to 161 °C
8,O=C1CC(c2ccc(Cl)cc2)CC(=O)N1,152 to 154 °C
9,OC1CCN(c2nncc3ccccc23)CC1,135 to 137 °C
10,O=C(O)c1cc2c(F)cc(F)cc2[nH]1,252 to 254 °C
11,CC(=O)c1ccc(-n2c(C)c[nH]c2=O)cc1,203 to 205 °C
12,NC(=O)c1csc(Br)c1,142 to 144 °C
13,CCOc1cc(/C=N/O)ccc1O,104 to 106 °C
14,CCOc1cc(C#N)cc(Br)c1O,140 to 142 °C
15,Cc1ccc(Cn2nc(C)c(/C=C/C(=O)O)c2C)cc1,161 to 163 °C
16,Nc1cccc(Oc2ccnc3ccccc23)c1,114 to 116 °C
17,CC(O)CNc1cc(Cl)ncn1 (stereo not given),101 to 103 °C
18,O=C(CCl)N1CCN(S(=O)(=O)c2ccccc2Cl)CC1,215 to 217 °C
19,O=C(O)c1c2c(cc([N+](=O)[O-])c1[N+](=O)[O-])OCCO2,210 to 212 °C
20,CNc1ccncc1[N+](=O)[O-],157 to 159 °C
21,NS(=O)(=O)c1cccc2c1CCCN2,147 to 149 °C

# Other lines, results leading:
row,melting point,SMILES
1,229 to 231 °C,O=C(O)c1ccc(S(=O)(=O)NCc2ccco2)cc1
2,83 to 85 °C,COC(=O)c1ccc(Oc2ccc(Cl)cc2N)cc1
3,86 to 88 °C,COC(=O)c1ccccc1NC(=O)OCC(F)(F)F
4,69 to 71 °C,COC(=O)c1cc2ccccc2n1C
5,139 to 141 °C,CC(C)S(=O)(=O)c1ccc(F)c(C(=O)O)c1
6,145 to 147 °C,CC(C)(C)c1ccc2c(c1)C(=O)C(=O)N2
7,176 to 178 °C,O=C(Nc1ccc(O)cc1C(=O)O)OCc1ccccc1
8,150 to 152 °C,Cn1c(NN)nc2ccccc2c1=O
9,149 to 151 °C,Clc1cc(Cl)c2c(n1)NCC2
10,120 to 124 °C,CCn1c(=O)[nH]c2ccccc21
11,110 to 112 °C,Cc1ccc(S(=O)(=O)Nc2cccc(Cl)c2)cc1N
12,169 to 171 °C,O=C(O)c1ccc(S(=O)(=O)NCC2CCCO2)cc1 (stereo not given)
13,144 to 146 °C,CC1CC(=O)NC(=O)C1
14,319 to 321 °C,Nc1cc2c(=O)[nH]cnc2cc1F
15,107 to 109 °C,Cc1nn(C)c2ncc(C=O)cc12
16,30 to 32 °C,O=C(CC1CCCC1)c1ccc(Oc2ccccc2)cc1
17,144 to 146 °C,CC1(C)CCc2c(sc(N)c2C(N)=O)C1
18,279 to 281 °C,CN1CC(=O)N(CC(=O)Nc2ccccc2)C1=O
19,128 to 130 °C,Cc1cc(C(=O)N2CCCC(C)C2)ccc1N (stereo not given)
20,39 to 41 °C,Cc1cc(Cl)cc(C)c1C=O

row,melting point,SMILES
1,74 to 76 °C,CC(C)c1cc(C(=O)O)on1
2,171 to 173 °C,NNC(=O)c1cc2ccccc2o1
3,248 to 250 °C,CC(C1CC2CCC1C2)n1c(N)cc(=O)[nH]c1=O (stereo not given)
4,129 to 131 °C,CCOc1cc(C(=O)O)ccc1OCC(=O)OC
5,329 to 331 °C,Cc1nc2c(cnn2-c2ccc(F)cc2)c(=O)[nH]1
6,134 to 136 °C,O=C(O)C(Oc1ccc(F)cc1Cl)c1ccccc1 (stereo not given)
7,146 to 148 °C,COc1cc2c(cc1/C=C/C(=O)O)OC(C)C2 (stereo not given)
8,92 to 94 °C,CCc1ccc(-c2csc(N)n2)s1
9,116 to 118 °C,N#Cc1cccc(-n2cccn2)n1
10,142 to 144 °C,COC(=O)C(=O)CC(=O)c1ccc(-c2ccccc2)cc1
11,164 to 166 °C,O=C(O)Cc1ccc([N+](=O)[O-])cc1Br
12,49 to 51 °C,Cc1ccc2c(C)cc(Cl)nc2c1
13,39 to 41 °C,CC(C(=O)O)c1ccc(Cl)c(Cl)c1 (stereo not given)
14,110 to 113 °C,Nn1c(S)nnc1-c1ccccc1Cl
15,82 to 84 °C,N#CC1(N2CCNCC2)CCCCC1
16,247 to 249 °C,CC(C)(C)c1cc(N)n(C2CCS(=O)(=O)C2)n1 (stereo not given)
17,148 to 150 °C,CCOC(=O)c1c(C)[nH]c(C(=O)C(C)Cl)c1C (stereo not given)
18,133 to 135 °C,CC(C)c1ncc(C(=O)O)s1
19,69 to 71 °C,CC(C)Nc1ccc(Br)cn1
20,215 to 217 °C,COC(=O)Nc1snc(C)c1C(=O)O

row,melting point,SMILES
1,63 to 65 °C,OC(CC1CCCN1)c1cccs1 (stereo not given)
2,35 to 39 °C,O=c1ccc2c([nH]1)CCC2
3,46 to 48 °C,CC(C)(C)c1ccc(S(=O)(=O)CCN)cc1
4,108 to 110 °C,Cc1ccccc1CNC(=O)C(C)Cl (stereo not given)
5,146 to 148 °C,Cc1cccc(C)c1-n1nnnc1S
6,144 to 146 °C,CC(=O)c1cnc2cc(C)nn2c1C
7,179 to 182 °C,Clc1nc(-c2cccnc2)nc2sc(-c3ccccc3)cc12
8,145 to 147 °C,O=C(O)Cc1cn(-c2ccccc2)nc1-c1ccc(F)cc1
9,114 to 116 °C,COc1ccc(C(=O)N2CCN(C)CC2)cc1N
10,222 to 224 °C,CCCCn1c(=O)[nH]c(=O)c2c1nc(CCl)n2C
11,119 to 121 °C,CN1CCN(C(=O)Cn2cc(N)cn2)CC1
12,39 to 41 °C,Cn1ccnc1CC#N
13,102 to 104 °C,O=[N+]([O-])c1ccccc1C(O)c1cccnc1 (stereo not given)
14,208 to 210 °C,NC(C(=O)O)c1cccs1 (stereo not given)
15,289 to 291 °C,O=C(O)c1ccc(S(=O)(=O)Nc2nccs2)cc1
16,144 to 146 °C,O=C(CCl)Nc1nc2c(s1)CCCC2
17,253 to 255 °C,Cc1nn2cnnc2c(C)c1CCC(=O)O
18,30 to 32 °C,CCOC(=O)COc1ccc(Br)cc1F
